# According to patent US10966962B2, “Method for treating neurodegenerative diseases” (THE BOARD OF TRUSTEES OF THE LELAND STANFORD JUNIOR …, priority 2014, dated 2021):
# What was measured:
# [1] = tested on: brain perivascular macrophages; assay: 2-NBDG glucose uptake in brain perivascular macrophages of ALS transgenic animals; assay type: in vivo, mice; settings: 25 mg/kg orally 3 times a week for 8 weeks, 13 weeks of age
# Protocol: ALS transgenic animals were orally treated 3 times a week for 8 weeks with 0.5% methylcellulose or ZLN005 (Sigma) at 25 mg/kg in 0.5% methylcellulose, starting at 5 weeks of age. For measuring brain perivascular macrophages, ALS-Ctrl (n=8), ALS-ZLN (n=8), and WT animal (n=12) were sacrificed at 13 weeks of age. PBS-perfused brain tissues of sacrificed animals were digested with Collagenase IV and processed for flow cytometry. Brain perivascular macrophages were stained with 2-NBDG, the fluorescent glucose analog, to measure glucose uptake for flow cytometric acquisition (LSRII, BD) and analysis (FlowJo). The results are summarized in FIG. 20; Y-axis represents % of brain perivascular macrophages that have taken up the glucose analog, 2-NBDG. […] ANOVA was used for statistical analysis.
# ALS transgenic mice = assay: Survival of ALS transgenic animals; assay type: in vivo
# Protocol: ALS transgenic mice were orally treated 3 times a week with 0.5% methylcellulose or ZLN005 (Sigma) at 25 mg/kg in 0.5% methylcellulose, starting at 5, 10 and 15 weeks of age.
# Survival of ALS-Ctrl (n=18) and ALS-ZLN mice (n=8) were monitored until all animals succumbed. […] Log-rank test was used for statistical analysis.
# DLB transgenic animals = assay: Wheel-running test in DLB transgenic animals (SNCA*A53T); assay type: in vivo, mice; settings: 25 mg/kg orally 3 times a week for 12 weeks
# Protocol: […] transgenic mice, an animal model in which the mutated form of human alpha synuclein is overexpressed, were generated to study pathological mechanisms in PD and DLB (Lee et al, Proc Natl Acad Sci USA. 2002, 13:8968-8970). […] DLB transgenic animals were purchased from Jackson Laboratories and were orally treated 3 times a week with 0.5% methylcellulose (Ctrl) or ZLN005 (ZLN) at 25 mg/kg in vehicle, starting at 8 weeks of age for 12 weeks. Subsequently, at 20 weeks of age, these animals were subjected to 1.5 weeks of training on a treadmill at a constant speed 10 rpm and then 1.5 weeks of training at an accelerating speed from 5-15 rpm, similar to those described in Example 8. After the training period at 21.5 and 23 weeks of age, animals were tested for motor performance at a constant speed and at an accelerating speed, respectively. DLB-ZLN mice (n=11) show an increase in latency to fall in comparison to DLB-Ctrl mice (n=9) at a constant speed of 10 rpm (271.5 seconds vs. 252.8 seconds). […] Thus, motor dysfunction of DLB mice was alleviated by ZLN005 treatment. Unpaired t-tests were used for statistical analyses.
# microglia [2] = assay: Microglial metabolic phenotyping in MPTP-treated animals (Slc2a1 flow cytometry, ex vivo lactic acid production); set-up: species or system mice; settings: 3 oral doses
# Text: For measuring microglial expression of glucose transporter Slc2a1, MPTP-ZLN (n=10), MPTP-Ctrl (n=14), and Veh animals (n=14) were sacrificed. Brain microglia were phenotyped with antibody directed against glucose transporter Slc2a1 (RnD) for flow cytometric acquisition (LSRII, BD) and analysis (FlowJo). For measuring microglial glycolysis, MPTP-ZLN (n=8), MPTP-Ctrl (n=6), and Veh animals (n=6) were sacrificed. Microglia were sorted by flow cytometry and subjected to lactic acid production assays ex vivo (Cayman Chem) for glycolysis measurement. Y-axis represents Slc2a1 expression in median fluorescence units (MFI, A) and lactic acid production in micromolar units ([…], B). […] ANOVA was used for statistical analyses.
# AD transgenic animals = assay: Nest building in 5XFAD AD transgenic animals; assay type: in vivo, mice; settings: 25 mg/kg orally 3 times a week for 4 weeks, 7 weeks of age, vs 5XFAD-Ctrl
# Protocol: As described in Example 7, nest-building skill is one of the most reliable measurements of motor function. In this test, AD transgenic animals were orally treated 3 times a week for 4 weeks with 0.5% methylcellulose or ZLN005 (Sigma) at 25 mg/kg in 0.5% methylcellulose, starting at 3 weeks of age. At 7 weeks of age, animals were given cotton pads and the amount of cotton that was shredded over a 24-hour period was measured. […] Unpaired t-test was used for statistical analysis.
# microglia [3] = assay: Microglia flow cytometry in acute STZ model of AD (TNF-α, ThioltrackerViolet, MitotrackerRed); assay type: in vivo, mice
# Protocol: To induce symptoms of AD, STZ (3 mg/kg, Sigma) was administered via intracerebral injection ([…] et al, Int J Neurosci, PMID 24494726, 2014). This is a well-established model of the sporadic form of AD. Briefly, animals were anesthetized and STZ solution in 5 μl artificial cerebrospinal fluid (Harvard Apparatus) was injected through the skull with a 50 μl syringe. Control animals received a similar volume of artificial cerebrospinal fluid without STZ. The injections were performed twice, on Day 1 and Day 3. […] Treatment with ZLN005 was continued on a daily schedule until Day 7. […] Microglia were phenotyped with antibodies directed against mouse TNF-α (Biolegend) and metabolic dyes […], and MitotrackerRed (Invitrogen) for flow cytometric acquisition (LSRII, BD) and analysis (FlowJo). […] ANOVA was used for statistical analyses.
# [4] = tested on: brain perivascular macrophages; assay: Brain perivascular macrophage iNOS, IL6, TNFα in ALS transgenic animals; assay type: in vivo, mice; settings: 25 mg/kg orally 3 times a week for 8 weeks, 13 weeks of age
# Protocol: ALS transgenic animals were purchased from Jackson Laboratories. These animals express the G93A mutation in the gene SOD1 which has been implicated as the cause of the disease in a subset of human subjects with familial ALS. […] These animals represent a gold standard model for therapeutic discovery in the field of ALS research. ALS transgenic animals were orally treated 3 times a week for 8 weeks with 0.5% methylcellulose or ZLN005 (Sigma) at 25 mg/kg in 0.5% methylcellulose, starting at 5 weeks of age. For study of brain perivascular macrophages, ALS-Ctrl (n=8), ALS-ZLN (n=12), and WT animals (n=12) were sacrificed at 13 weeks of age. PBS-perfused brain tissues of sacrificed animals were digested with Collagenase IV and processed for flow cytometry. Brain perivascular macrophages were phenotyped with antibodies directed against mouse iNOS, IL6, and TNFα (Biolegend) for flow cytometric acquisition (LSRII, BD) and analysis (FlowJo). The results are summarized in FIG. 16; Y-axis represents % of brain perivascular macrophages that express iNOS (A), IL6 (B) and TNFα (C). […] ANOVA was used for statistical analyses.
# [5] = STZ-treated animals, 25 mg/kg orally daily until Day 7
smiles,measurement,setting,value
"CC(C)(C)c1ccc(-c2nc3ccccc3[nH]2)cc1 [ZLN005, 2-(4-tert-butylphenyl)-1H-benzimidazole]",glucose uptake (2-NBDG) in brain perivascular macrophages,[1],decreased
same,onset of hind limb paralysis,ALS transgenic mice; ALS transgenic mice,delayed
same,mean survival,"ALS transgenic mice; ALS transgenic, 25 mg/kg orally 3 times a week starting at 5 or 10 weeks of age, p <0.05 vs ALS-Ctrl",131 to 132 days
same,latency to fall,"DLB transgenic animals; accelerating speed 5-15 rpm, p <0.05 vs Ctrl",194.0 s
same,latency to fall,"DLB transgenic animals; constant speed 10 rpm, difference to Ctrl not statistically significant",271.5 s
same,lactic acid production in microglia,"microglia [2]; Day 4, ex vivo, vs MPTP-Ctrl",decreased
same,glucose transporter Slc2a1 expression in microglia,"microglia [2]; Day 4, vs MPTP-Ctrl",decreased
same,"nest building, amount of cotton shredded over 24 hours",AD transgenic animals,significantly increased the amount of cotton shredded
same,TNF-α production in microglia,microglia [3]; [5],suppressed TNF-α production
same,mitochondrial potential in microglia (MitotrackerRed),microglia [3]; [5],enhanced
same,production of glutathione in microglia (ThioltrackerViolet),microglia [3]; [5],enhanced
same,glycolysis in microglia,microglia [3]; microglia isolated from STZ-treated animals,enhanced glycolysis
same,IL6 production in brain perivascular macrophages,[4],"suppressed, although these differences did not reach statistical significance"
same,TNFα production in brain perivascular macrophages,[4],"suppressed, although these differences did not reach statistical significance"
same,iNOS production in brain perivascular macrophages,[4],decreased
